The values below come from US20250145576A1, “CATHEPSIN K INHIBITOR, AND PREPARATION METHOD THEREFOR AND USE THEREOF” (SHANDONG NEW TIME PHARMACEUTICAL CO., LTD., priority 2022, published 2025).

On the set-up of data set [1]: species or system SD rats. The conditions noted are these: rat, in vivo. On the procedure:
• Chromatographic column: […] Electrospray ionization (ESI); ion spray voltage: 3,500 V; ion source temperature: 300° C.; auxiliary gas: 45 Arb; and sheath gas: 10 Arb. • Intravenous intraperitoneal administration solution: prepared with 0.5% HS-15 normal saline solution with the concentration of 0.2 mg/mL; and • intragastric administration suspension: ground and suspended with 0.5% CMC-Na aqueous solution with the concentration of 0.5 mg/mL. Each administration was tested using 2 SD rats per compound. The two compounds […] were subjected to intravenous injection and intragastric administration respectively. […] All blood samples were anticoagulated by heparin and centrifuged for 10 min at 4,000 g. The supernatant plasma was taken for cryopreservation to be tested. 50 μL of the plasma sample was taken, 150 μL of acetonitrile was added, the mixture was evenly mixed by vortex and centrifuged at 9,100 g for 10 min, and a supernatant was taken and 2 μL of the supernatant was injected and detected on a machine.

Another data set relates to RAW264.7 cells. Description: Osteoclast differentiation of RAW264.7 cells induced by RANKL, TRAP staining. The class given is cell-based. The conditions noted are these: for osteoclastogenesis compared with model group (in words): K29 at 1 μM and 10 μM, K31 at 100 nM and 500 nM. As for the experimental part: RAW264.7 cells were inoculated at a density of 1×10^5/well in 96-well plates and cultured in DMEM containing 10% fetal bovine serum and 1% penicillin/streptomycin. The cells were cultured in a constant-temperature incubator containing 5% CO2 at 37° C. 100 ng/mL of a RANKL inducing solution was added into each well of the administration groups and a model group to culture osteoclasts, the solution (containing RANKL) was changed every 2-3 days, inhibitor working solutions with different concentrations were added into the administration groups after the solution was changed for the 3rd time, a PBS working solution with the same volume was added into the model group, and the cells were continuously cultured for 24 h; and in the control group, the RANKL inducing solution and the inhibitor working solution were not added, and the PBS working solution with the same total volume was added. A culture supernatant was removed, the cells were rinsed 3 times with PBS and stained with a TRAP staining kit, and the multinucleated osteoclasts were observed under an optical microscope and counted.

Data set [2] can be described thus: Intrinsic clearance rate and half-life in rat liver microsomes. The class given is in vitro ADME. The conditions noted are these: for half-life: rat. As for the experimental part:
1 mL of a dichloromethane solution was respectively added into centrifuge tubes filled with test substance powders K2 (molecular formula C23H27N3O4, 4.6 mg), K3 (molecular formula C23H26FN3O4, 5.0 mg) and K4 (molecular formula C23H25F2N3O4, 5.6 mg) for dissolving, and subjected to ultrasonic treatment for 30 min to obtain a K2 stock solution with the mass concentration of 4.6 mg/mL, a K3 stock solution with the mass concentration of 5.0 mg/mL and a K4 stock solution with the mass concentration of 5.6 mg/mL. The stock solutions were sealedly stored in a refrigerator at −20° C. for later use. Before use, the stock solutions were gradually diluted with methanol to corresponding mass concentration to respectively prepare 0.02, 0.05, 0.22, 0.49, 0.96, 2.37 and 4.90 ng/mL of K2 series standard sample working solutions, 0.02, 0.05, 0.10, 0.19, 1.00, 2.01 and 4.93 ng/mL K3 series standard sample working solutions, and 0.10, 0.20, 0.53, 0.96, 2.42, 5.10 and 10.10 ng/mL K4 series standard sample working solutions.
5 μL of the test drugs, 2 μL of rat liver microsomes and 468 μL of a PBS buffer solution were taken by using a pipette and prepared a premixed solution. The premixed solution was incubated for 5 min in a water bath kettle at 37° C., 47.5 μL of the premixed solution was taken after the incubation was finished, and the premixed solution, 100 μL of ice-cold acetonitrile and 2.5 μL of a PBS buffer solution were added to another new tube after to be gently mixed evenly to obtain a control group. The reaction was started by adding 22.5 μL of a NADPH solution to the remaining premixed solution, the reaction solution was gently pipetted, and the reaction was stopped by immediately taking 50 μL of the premixed solution and 100 μL of acetonitrile in a new tube. Then the incubation liquid was put into the water bath for incubation, 50 μL of the incubation liquid was respectively taken at 5 min, 10 min, 20 min, 30 min, 45 min, 60 min and 90 min, and the reaction was terminated by adding 100 μL of acetonitrile. The reaction solution was centrifuged at 12,000 r/min for 10 min, and the supernatant was taken and detected on a machine.
• Chromatographic column: Hypersil GOLD 100*2.1 mm 3 μm liquid chromatography column • Mobile phase: 0.1% formic acid aqueous solution (A); and 100% acetonitrile (B) • Gradient elution (0-1 min: 50% B, 1-5 min: 50% B-90% B, 5-7 min: 90% B, 7-7.1 min: 50% B, and 7.1-10 min: 50% B) • Flow rate: 0.3 ml/min; column temperature: 40° C.; and injection volume: 5 μL […]
Sample solutions were subjected to sample injection analysis under the chromatographic and mass spectrometry conditions, and the peak areas were recorded. […]
(In general: Microsomes from liver hold many membrane-bound enzymes, among them those of drug oxidation.)

The target in another data set is Cathepsin K (Homo sapiens (Human), UniProt P43235). Description: Cat K inhibitor screening kit, AFC substrate fluorescence. The class given is biochemical. As for the experimental part:
Reagent information: Cat K inhibitor screening kit: batch number, 6L23K01500; supplier, BiVision. Drug preparation: compounds were dissolved in DMSO and prepared into 10 mM stock solutions. When in use, the stock solutions were prepared into the required concentrations by using a buffer.
Cathepsin K (CTSK, EC 3.4.22.38) is a lysosomal cysteine protease, participates in osteoclastic bone remodeling and resorption, and can further degrade collagen, gelatin and elastin. The cathepsin K inhibitor screening kit from Biovision uses the ability of the active cathepsin K to cleave a synthetic AFC-based peptide substrate to release AFC and the AFC can be easily quantified by using a fluorometer or fluorescent microplate reader. In the presence of a specific cathepsin K specific inhibitor, the cleavage of the substrate is reduced/eliminated, resulting in a reduction or complete loss of AFC fluorescence. The simple and high-throughput adaptive assay kit can be used to screen/study/characterize a potential inhibitor of the cathepsin K.
20 μL of a buffer, a Cat K inhibitor and test compounds (1 μM and 10 μM) were added to 96-well plates to serve as an EC well, an IC well and an S well, respectively; 50 μL of a Cat K enzyme solution was added into all the wells respectively and the mixture was incubated for 10-15 min at room temperature to establish an enzyme inhibitor complex; 30 μL of a Cat K substrate solution was added into all the wells and the mixture was incubated for 30-60 min at room temperature; and the final volume of the reaction was 100 μL.
The screening method was the same as 1.1, the concentrations of the test compounds were set between 0.1 nM and 10 μM, 4-5 concentrations were selected for detection, IC50 curves were drawn, and IC50 values were calculated.

The target of a further data set is Cathepsin B (Homo sapiens (Human), UniProt P07858). Kind of data set: Screening of Cathepsin B, fluorescence. The class given is biochemical. The conditions noted are these: >> inhibition rate did not exceed 20% at test concentration; > greater than 35%; ≈ about 50%; < less than 50%. On the procedure: 10 μL of a buffer, a Cat B inhibitor and test compounds (1 μM and 10 μM) were added to 96-well plates to serve as an EC well, an IC well and an S well, respectively; 50 μL of a Cat B enzyme solution was added into all the wells respectively and the mixture was incubated for 10-15 min at room temperature to establish an enzyme inhibitor complex; 40 μL of a Cat B substrate solution was added into all the wells and the mixture was incubated for 30-60 min at room temperature; and the final volume of the reaction was 100 μL.
(§1) The screening method was the same as above, the concentrations of the test compounds were set between 0.1 nM and 10 μM, 4-5 concentrations were selected for detection, IC50 curves were drawn, and IC50 values were calculated.

In the next data set the test system is Cathepsin S. Kind of data set: Screening of Cathepsin S, fluorescence. The class given is biochemical. The conditions noted are these: >> inhibition rate did not exceed 20% at test concentration; > greater than 35%; ≈ about 50%; < less than 50%. On the procedure: 10 μL of a buffer, a Cat S inhibitor and test compounds (1 μM and 10 μM) were added to 96-well plates to serve as an EC well, an IC well and an S well, respectively; 50 μL of a […] was added into all the wells respectively and the mixture was incubated for 10-15 min at room temperature to establish an enzyme inhibitor complex; 40 μL of a Cat S substrate solution was added into all the wells and the mixture was incubated for 30-60 min at room temperature; and the final volume of the reaction was 100 μL.
as §1

Like-named read-outs stand apart in the source and are kept apart here.

Sequence of Cathepsin K (P43235 115-329): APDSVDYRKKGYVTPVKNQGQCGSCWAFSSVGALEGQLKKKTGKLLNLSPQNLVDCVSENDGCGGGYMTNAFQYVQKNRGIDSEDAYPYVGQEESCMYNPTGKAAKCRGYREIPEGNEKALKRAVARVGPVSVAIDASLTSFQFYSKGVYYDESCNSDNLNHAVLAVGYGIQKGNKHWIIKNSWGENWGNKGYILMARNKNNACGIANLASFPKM

By Tmax is commonly meant the time from dosing to the highest level. The Cmax is the maximum level reached in the sampled fluid or tissue. In data set [1], `COc1cc(F)cc2c3c([nH]c12)CCN(C(=O)[C@@H]1CCCC[C@H]1C(=O)N[C@H]1COCC1=O)C3` [Compound K31, (1R,2R)-2-(8-fluoro-6-methoxy-2,3,4,5-tetrahydro-1H-pyrido[4,3-b]indole-2-carbonyl)-N—(S)-(4-oxotetrahydrofuran-3-yl)-cyclohexane-1-carboxamide] yielded an F of 51.0%. In data set [1] (iv, 1 mg/kg), the time to peak (Tmax) stood at 1.98 min. In addition, in data set [1] (po), the Bioavailability % amounted to 51.0%, the CLz is 1.67 L/h/kg, the Cmax turned out to be 936 ng/mL and the Tmax came to 15 min. Besides, in data set [1] (po), the Vz is recorded as 4.38 L/kg and the t1/2z worked out at 109 min. Moreover, the Tmax in data set [1] (po, 5 mg/kg) is 15 min. The Number of osteoclasts in the data set with RAW264.7 cells (100 nM) was determined as 13.25. The compound further had a Number of osteoclasts in the data set with RAW264.7 cells (500 nM) of 14. The “osteoclastogenesis compared with model group (in words)” value in the data set on RAW264.7 cells was “tendency to inhibit osteoclastogenesis”.

The term half-life denotes the time in which the quantity being followed falls by half. A higher half-life goes with slow decline. One may read the IC50 as the concentration needed to halve the response being measured. Low values mean inhibition by little substance, high ones a need for much substance. On to `O=C1COCC1NC(=O)[C@@H]1CCCC[C@H]1C(=O)N1CCc2[nH]c3ccccc3c2C1` (stereo partly drawn) [Compound K20, (1R,2R)-2-(2,3,4,5-tetrahydro-1H-pyrido[4,3-b]indole-2-carbonyl)-N-(4-oxotetrahydrofuran-3-yl)-cyclohexane-1-carboxamide], for which the half-life in data set [2] is 46.6 min. On Cathepsin K, this compound registered an IC50 of 0.01 to 0.1 µM.

With `CC(C)(C)CN(Cc1ccc(-c2ccc(F)cc2)cc1)c1nccc(C#N)n1` [Compound K4, 2-[(2,2-dimethylpropyl){[4-(4-fluorophenyl)phenyl]methyl}amino]pyrimidine-4-carbonitrile], in data set [2], the “reduction of clearance rate compared with Ref-03” value was found to be 2 times.

Take `O=C1COC[C@@H]1NC(=O)[C@@H]1CCCC[C@H]1C(=O)N1CCc2c([nH]c3c(F)cccc23)C1` [Compound K21, (1R,2R)-2-(8-fluoro-2,3,4,9-tetrahydro-1H-pyrido[3,4-b]indole-2-carbonyl)-N—((S)-4-oxotetrahydrofuran-3-yl)cyclohexane-1-carboxamide]: the half-life in data set [2] is 42.4 min. The compound also yielded an IC50 against Cathepsin K of 0.01 to 0.1 µM. Further, at Cathepsin B, the “Cat B/K ratio of inhibitory activities” value was more than 710. Moreover, the “Cat S/K ratio of inhibitory activities” value in the data set with Cathepsin S is more than 710.

`COc1cccc2c3c([nH]c12)CCN(C(=O)[C@@H]1CCCC[C@H]1C(=O)N[C@H]1COCC1=O)C3` [Compound K29, (1R,2R)-2-(6-methoxy-2,3,4,5-tetrahydro-1H-pyrido[4,3-b]indole-2-carbonyl)-N—(S)-(4-oxotetrahydrofuran-3-yl)-cyclohexane-1-carboxamide] returned a F in data set [1] of 62.1%. In data set [1] (iv, 1 mg/kg), the Tmax amounted to 1.98 min. In data set [1] (po), the Bioavailability % stood at 62.1%, the CLz is 1.60 L/h/kg, the Cmax is on record as 1,285 ng/mL and the Tmax amounted to 15 min. In data set [1] (po), this compound returned a Vz of 3.83 L/kg and a t1/2z of 99 min. For the same compound, the Tmax in data set [1] (po, 5 mg/kg) amounted to 15 min. The compound further yielded a Number of osteoclasts in the data set with RAW264.7 cells (1 μM) of 13. Also, in the data set with RAW264.7 cells (10 μM), the Number of osteoclasts worked out at 11.25 and the “osteoclastogenesis (in words)” value was “obviously inhibited the osteoclastogenesis”. The “osteoclastogenesis compared with model group (in words)” value with RAW264.7 cells is listed as “tendency to inhibit osteoclastogenesis”.

Take `O=C1COC[C@@H]1NC(=O)[C@@H]1CCCC[C@H]1C(=O)N1CCc2c([nH]c3c(F)cc(F)cc23)C1` [Compound K22, (1R,2R)-2-(6,8-difluoro-2,3,4,9-tetrahydro-1H-pyrido[3,4-b]indole-2-carbonyl)-N—((S)-4-oxotetrahydrofuran-3-yl)cyclohexane-1-carboxamide]: the half-life in data set [2] was 88.5 min. Further, the half-maximal inhibitory concentration (IC50) at Cathepsin K was 0.01 to 0.1 µM.
